Like-named read-outs stand apart in the source and are kept apart here.
Key:
SN40R2 cells = assay: Protocol B: SN40R2 CellTiter-Glo luminescent cell viability assay; conditions: for IC50: read-out: SN40R2 IC50 (μM) (Protocol B)
Experimental: Protocol B: SJSA-1 and SN40R2 Assays
The CellTiter-Glo® Luminescent Cell Viability Assay is a homogeneous method to determine the number of viable cells in culture based on quantitation of the ATP present, which signals the presence of metabolically active cells. […] 100 μl of CTG reagent (Promega #G7573) was added to all wells and luminescence was measured on the topcount. The EC50 values were determined from a sigmoidal 4 parameter curve fit using XLfit in conjunction with Activity Base (IDBS; Guildford, Surrey, UK).

SJSA-1 cells = assay: Protocol B: SJSA-1 CellTiter-Glo luminescent cell viability assay
[1] = read-out: SN40R2 % inhibition at 10
[2] = read-out: SN40R2 % inhibition at 10, Protocol B, SN40R2, at 10 μM
[3] = Homo sapiens, SJSA-1, read-out: SJSA1 IC50 (μM) (Protocol B), SJSA-1, Protocol B
[4] = read-out: SJSA1 IC50, Protocol B, SJSA-1

Row | SMILES | inhibition at 10 µM (SN40R2 cells; [1]) [%] | other results
1 | CN1CCN(CC(C)(O)c2cc(F)c3c(c2)C(=O)N(Cc2ccc(Cl)cc2S(C)(=O)=O)[C@@]3(OC2CCOC2)c2ccc(Cl)cc2)CC1 (single isomer, unassigned) [Example 67] |  | IC50 (SN40R2 cells; 72 h): 9.4 µM
2 | CO[C@]1(c2ccc(Cl)cc2)c2c(F)cc(C(C)(O)C3CCN(c4ncccn4)CC3)cc2C(=O)N1Cc1ccc(Cl)cn1 (single isomer, unassigned) [Example 286] |  | IC50 (SN40R2 cells): 12 µM
3 | CN1CCC(C(C)(O)c2cc(F)c3c(c2)C(=O)N(Cc2ccc(Cl)cn2)[C@@]3(OCC2(C(N)=O)CC2)c2ccc(Cl)cc2)CC1 (single isomer, unassigned) [Example 306] |  | IC50 (SN40R2 cells): 13 µM
4 | C=CC(O)(c1cc(F)c2c(c1)C(=O)N(Cc1ccc(C#N)cn1)[C@@]2(O[C@H]1C[C@@H](O)C1)c1ccc(Cl)cc1)c1cnn(C)c1 (single isomer, unassigned) [Example 361] | 8 | 
5 | CC(=O)N1CCC(C(C)(O)c2cc(F)c3c(c2)C(=O)N(Cc2ncc(Cl)cn2)[C@@]3(O[C@H]2C[C@@H](O)C2)c2ccc(Cl)cc2)CC1 (single isomer, unassigned) [Example 425] | 7 | 
6 | CO[C@]1(c2ccc(Cl)cc2)c2c(F)cc(C(C)(O)C3CCN(CC(=O)O)CC3)cc2C(=O)N1Cc1ccc(Cl)cn1 (single isomer, unassigned) [Example 459] | 7 | 
7 | CCC(O)(c1cc(F)c2c(c1)C(=O)N(Cc1ncc(C#N)cn1)[C@@]2(O[C@H]1CCOC1)c1ccc(Cl)cc1)c1ccn(C)n1 (single isomer, unassigned) [Example 489] |  | inhibition at 10 µM (SN40R2 cells; [2]): -9%
8 | CCC(O)(CN1CCNCC1)c1cc(F)c2c(c1)C(=O)N(Cc1ncc(Cl)cn1)[C@@]2(O[C@H]1CCOC1)c1ccc(Cl)cc1 (single isomer, unassigned) [Example 524] | 35 | 
9 | CCC(O)(CN1CC[C@@H](O)C1)c1cc(F)c2c(c1)C(=O)N(Cc1ncc(Cl)cn1)[C@@]2(O[C@H]1CCOC1)c1ccc(Cl)cc1 (single isomer, unassigned) [Example 526] | 9 | 
10 | CC[C@@](O)(c1cc(F)c2c(c1)C(=O)N(Cc1ncc(Cl)cn1)[C@@]2(OC)c1ccc(Cl)cc1)C1CCN(CCO)CC1 (single isomer, unassigned) [Example 550] | 33 | 
11 | CCC(O)(c1cc(F)c2c(c1)C(=O)N(Cc1ncc(Cl)cn1)[C@@]2(OC[C@@H](C)O)c1ccc(Cl)cc1)C1(F)CCN(C)CC1 (single isomer, unassigned) [Example 572] |  | inhibition at 10 µM (SN40R2 cells; [2]): 23%
12 | CO[C@]1(c2ccc(Cl)cc2)c2ccc(C(C)(O)CN3CCN(C)CC3)cc2C(=O)N1Cc1ccc(Cl)cn1 (stereo partly drawn) [Example 255, (3R)-3-(4-chlorophenyl)-2-[(5-chloropyridin-2-yl)methyl]-6-[2-hydroxy-1-(4-methylpiperazin-1-yl)propan-2-yl]-3-methoxy-2,3-dihydro-1H-isoindol-1-one] |  | IC50 (SN40R2 cells): 7.1 µM
13 | CO[C@]1(c2ccc(Cl)cc2)c2c(F)cc(C(C)(O)C3CCN(C)CC3)cc2C(=O)N1Cc1ccc(Cl)cn1 (stereo partly drawn) [Example 304, (3R)-3-(4-chlorophenyl)-2-[(5-chloropyridin-2-yl)methyl]-4-fluoro-6-[1-hydroxy-1-(1-methylpiperidin-4-yl)ethyl]-3-methoxy-2,3-dihydro-1H-isoindol-1-one] |  | IC50 (SN40R2 cells): 9 µM
14 | COc1nc(C)ccc1CN1C(=O)c2cc(C(C)(C)O)cc(F)c2[C@]1(OC)c1ccc(Cl)cc1 [Example 315, (3R)-3-(4-chlorophenyl)-4-fluoro-6-(2-hydroxypropan-2-yl)-3-methoxy-2-[(2-methoxy-6-methylpyridin-3-yl)methyl]-2,3-dihydro-1H-isoindol-1-one] |  | IC50 (SN40R2 cells): 13 µM
15 | CCC(O)(c1cc(F)c2c(c1)C(=O)N(Cc1ccc(C#N)cn1)[C@@]2(O[C@H]1C[C@@H](O)C1)c1ccc(Cl)cc1)c1cnn(C)c1 (stereo partly drawn) [Example 339, 6-{[(1R)-1-(4-chlorophenyl)-7-fluoro-5-[1-hydroxy-1-(1-methyl-1H-pyrazol-4-yl)propyl]-3-oxo-1-[cis-3-hydroxycyclobutoxy]-2,3-dihydro-1H-isoindol-2-yl]methyl}pyridine-3-carbonitrile] | 3 | 
16 | CCC(O)(c1cc(F)c2c(c1)C(=O)N(Cc1ccc(C#N)cn1)[C@@]2(OCCO)c1ccc(Cl)cc1)c1cn(C)cn1 (stereo partly drawn) [Example 364, 6-{[(1R)-1-(4-chlorophenyl)-7-fluoro-5-[1-hydroxy-1-(1-methyl-1H-imidazol-4-yl)propyl]-1-(2-hydroxyethoxy)-3-oxo-2,3-dihydro-1H-isoindol-2-yl]methyl}pyridine-3-carbonitrile] | 9 | 
17 | CCC(O)(c1cc(F)c2c(c1)C(=O)N(Cc1ccc(C#N)cn1)[C@@]2(O[C@H]1CCOC1)c1ccc(Cl)cc1)c1ccn(C)c(=O)c1 (stereo partly drawn) [Example 374, 6-{[(1R)-1-(4-chlorophenyl)-7-fluoro-5-[1-hydroxy-1-(1-methyl-2-oxo-1,2-dihydropyridin-4-yl)propyl]-3-oxo-1-[(3S)-oxolan-3-yloxy]-2,3-dihydro-1H-isoindol-2-yl]methyl}pyridine-3-carbonitrile] | 2 | 
18 | CC(O)(c1cc(F)c2c(c1)C(=O)N(Cc1ccc(C#N)cn1)[C@@]2(O[C@H]1CCOC1)c1ccc(Cl)cc1)C1(F)CCOCC1 (stereo partly drawn) [Example 388, 6-{[(1R)-1-(4-chlorophenyl)-7-fluoro-5-[1-(4-fluorooxan-4-yl)-1-hydroxyethyl]-3-oxo-1-[(3S)-oxolan-3-yloxy]-2,3-dihydro-1H-isoindol-2-yl]methyl}pyridine-3-carbonitrile] | 4 | 
19 | O=C1c2cc(C(O)C3CCS(=O)(=O)CC3)cc(F)c2[C@](OCC2(O)CC2)(c2ccc(Cl)cc2)N1Cc1ncc(Cl)cn1 (stereo partly drawn) [Example 399, 4-{[(1R)-1-(4-chlorophenyl)-2-[(5-chloropyrimidin-2-yl)methyl]-7-fluoro-1-[(1-hydroxycyclopropyl)methoxy]-3-oxo-2,3-dihydro-1H-isoindol-5-yl](hydroxy)methyl}-1λ6-thiane-1,1-dione] | 2 | 
20 | Cn1cc(C(C)(O)c2cc(F)c3c(c2)C(=O)N(Cc2ccc(Cl)c[n+]2[O-])[C@@]3(OCC2(O)CC2)c2ccc(Cl)cc2)cn1 (stereo partly drawn) [Example 409, (3R)-2-[(5-chloro-1-oxo-1λ^5-pyridin-2-yl)methyl]-3-(4-chlorophenyl)-4-fluoro-6-[1-hydroxy-1-(1-methyl-1H-pyrazol-4-yl)ethyl]-3-[(1-hydroxycyclopropyl)methoxy]-2,3-dihydro-1H-isoindol-1-one] |  | IC50 (SJSA-1 cells; [3]): 0.41 µM
21 | CC(C)(O)c1cc(F)c2c(c1)C(=O)N([C@@H](CO)c1ccc(Cl)cn1)[C@@]2(OCC1(CO)CC1)c1ccc(Cl)cc1 [Example 418, (3R)-3-(4-Chlorophenyl)-2-[(1R)-1-(5-chloropyridin-2-yl)-2-hydroxyethyl]-4-fluoro-3-{[1-(hydroxymethyl)cyclopropyl]methoxy}-6-(2-hydroxypropan-2-yl)-2,3-dihydro-1H-isoindol-1-one] |  | IC50 (SJSA-1 cells; [3]): 0.28 µM
22 | CCC(O)(c1cc(F)c2c(c1)C(=O)N(Cc1ccc(C#N)cn1)[C@@]2(O[C@@H]1CCOC1)c1ccc(Cl)cc1)c1cn(C)cn1 (stereo partly drawn) [Example 426, 6-{[(1R)-1-(4-chlorophenyl)-7-fluoro-5-[1-hydroxy-1-(1-methyl-1H-imidazol-4-yl)propyl]-3-oxo-1-[(3R)-oxolan-3-yloxy]-2,3-dihydro-1H-isoindol-2-yl]methyl}pyridine-3-carbonitrile] | 4 | 
23 | Cn1cnc(C(O)(c2cc(F)c3c(c2)C(=O)N(Cc2ccc(C#N)cn2)[C@@]3(O[C@H]2CCOC2)c2ccc(Cl)cc2)C2CC2)c1 (stereo partly drawn) [Example 433, 6-{[(1R)-1-(4-chlorophenyl)-5-[cyclopropyl(hydroxy)(1-methyl-1H-imidazol-4-yl)methyl]-7-fluoro-3-oxo-1-[(3S)-oxolan-3-yloxy]-2,3-dihydro-1H-isoindol-2-yl]methyl}pyridine-3-carbonitrile] |  | inhibition at 30 µM (SN40R2 cells; read-out: SN40R2 % inhibition at 30): 20%
24 | Cn1cnc(C(O)(c2cc(F)c3c(c2)C(=O)N(Cc2ccc(C#N)cn2)[C@@]3(O[C@H]2CCOC2)c2ccc(Cl)cc2)C2CC2)c1 (stereo partly drawn) [Example 434, 6-{[(1R)-1-(4-chlorophenyl)-5-[cyclopropyl(hydroxy)(1-methyl-1H-imidazol-4-yl)methyl]-7-fluoro-3-oxo-1-[(3S)-oxolan-3-yloxy]-2,3-dihydro-1H-isoindol-2-yl]methyl}pyridine-3-carbonitrile] | 7 | 
25 | [2H]C([2H])(O)C1(C([2H])([2H])O[C@]2(c3ccc(Cl)cc3)c3c(F)cc(C(O)(CC)c4cn(C)cn4)cc3C(=O)N2Cc2ccc(C#N)cn2)CC1 (stereo partly drawn) [Example 440, 6-{[(1R)-1-(4-chlorophenyl)-7-fluoro-1-({1-[hydroxy(^2H2)methyl]cyclopropyl}(^2H2)methoxy)-5-[1-hydroxy-1-(1-methyl-1H-imidazol-4-yl)propyl]-3-oxo-2,3-dihydro-1H-isoindol-2-yl]methyl}pyridine-3-carbonitrile] |  | IC50 (SJSA-1 cells; [4]): 1.9 µM
26 | CCC(O)(c1cc(F)c2c(c1)C(=O)N(Cc1ccc(C#N)cn1)[C@@]2(O[C@H]1CCOC1)c1ccc(Cl)cc1)C1(F)CCOCC1 (stereo partly drawn) [Example 445, 6-{[(1R)-1-(4-chlorophenyl)-7-fluoro-5-[1-(4-fluorooxan-4-yl)-1-hydroxypropyl]-3-oxo-1-[(3S)-oxolan-3-yloxy]-2,3-dihydro-1H-isoindol-2-yl]methyl}pyridine-3-carbonitrile] | 16 | 
27 | CCC(O)(c1cc(F)c2c(c1)C(=O)N(Cc1ncc(Cl)cn1)[C@@]2(OC)c1ccc(Cl)cc1)C1CCNCC1 (stereo partly drawn) [Example 450, (3R)-3-(4-chlorophenyl)-2-[(5-chloropyrimidin-2-yl)methyl]-4-fluoro-6-[1-hydroxy-1-(piperidin-4-yl)propyl]-3-methoxy-2,3-dihydro-1H-isoindol-1-one] | 15 | 
28 | CC(O)(c1cc(F)c2c(c1)C(=O)N(Cc1ncc(Cl)cn1)[C@@]2(O[C@H]1C[C@@H](O)C1)c1ccc(Cl)cc1)[C@H]1CC[C@H](O)CC1 (stereo partly shown) [Example 496] |  | IC50 (SJSA-1 cells; [4]): 1.8 µM
